The values below come from patent publication US20110071201A1, “PHENOL-CONTAINING AZOLE COMPOSITIONS FOR THE PROTECTION OF INDUSTRIAL MATERIALS” (LANXESS DEUTSCHLAND GMBH, priority 2009, published 2011).

One data set deals with Coriolus versicolor. Put plainly: Agar hyphae growth inhibition test (MIC) with Kull synergism index. The class given is cell-based. To be noted: Trametes versicolor, 168 h; malt extract/peptone nutrient agar, 26° C., about 1 week; concentration at which radial hyphae growth was suppressed completely; read-out: MIC value against Coriolus versicolor. As for the experimental part: Mycelium pieces were punched out of a colony of the wood-destroying organism Coriolus versicolor and incubated on a malt extract/peptone-containing nutrient agar at 26° C. The growth of the hyphae with and without active compound and 6,6′-di-tert-butyl-2,2′-methylenedi-p-cresol was compared. The minimum inhibitory concentration (MIC) stated was the concentration at which the radial hyphae growth was suppressed completely (incubation time: about 1 week, independently of the fungal growth of the comparative sample without active compound).
The synergism was determined by the method described by Kull et al. (F. C. Kull, P. C. Eismann, H. D. Sylvestrowicz, R. L. Mayer, Applied Microbiology 1961, 9, 538-541). The following relationships apply:
SI=1 means additivity SI>1 means antagonism SI<1 means synergism Qa=concentration of substance A which is the MIC Qb=concentration of substance B which is the MIC QA=concentration of substance A in the concentration of A/B at which microbial growth is suppressed QB=concentration of substance B in the concentration of A/B at which microbial growth is suppressed

Data set [1] can be described thus: Solubility in water and vapour pressure. The class given is physicochemical.
Another data set has as its system Lentinus tigrinus. Put plainly: Agar hyphae growth inhibition test (MIC) with Kull synergism index. To be noted: 168 h, malt extract/peptone nutrient agar, 26° C., about 1 week, concentration at which radial hyphae growth was suppressed completely, read-out: MIC value against Lentinus tigrinus. Type of data set: cell-based.

Usually MIC stands for the lowest concentration found to suppress growth. On to `Cc1cc(Cc2cc(C)cc(C(C)(C)C)c2O)c(O)c(C(C)(C)C)c1` [phenol I, 6,6′-di-tert-butyl-2,2′-methylenedi-p-cresol], for which, in the data set on Coriolus versicolor, the MIC is above 30 µg/mL. For the same molecule, the solubility in water in data set [1] is below 1 ppm. Also, the vapour pressure in data set [1] (at 50° C.) was determined as 0.0001 hPa.
For the molecule `CC(C)(C)C(O)(CCc1ccc(Cl)cc1)Cn1cncn1` (centres unmarked) [tebuconazole, reference compound], the results for the MIC in the data set with Coriolus versicolor and with Lentinus tigrinus were 1 µg/mL and 0.3 µg/mL, respectively.
